Patent publication US12497359B2, “Acrylamide derivatives” (NRG Therapeutics Ltd, priority 2020, dated 2025)

Tested on: mPTP
Assay: mPTP human platelet mitochondria membrane potential flow cytometry assay
Type: cell-based
Details: stimulated human platelets
Protocol: The mPTP cell based assay was performed using a mitochondria membrane potential flow cytometry assay in stimulated human platelets. Simulation of platelets results in the rapid influx of Ca^2+ across the platelet membrane. The Ca^2+ is then sequestered by mitochondria until the threshold for mPTP opening is reached, at which point the pore opens and the mitochondrial membrane potential is dissipated. Changes in mitochondria membrane potential due to mPTP opening can be quantified in live platelets using standard mitochondrial membrane potential dyes e.g. 3,3′-dihexyloxacarbocyanine Iodide; DiOC6 (3), enabling pharmacological characterisation of mPTP inhibitors.
Fresh human blood (20 ml) was collected from consented donors into 3.2% sodium citrate. Platelets were isolated by centrifugation at 200 g for 20 min at room temperature, then the platelet rich plasma layer transferred to a fresh tube. Prostaglandin 12 is added to the platelets at a final concentration of 20 ng/ml. After centrifugation at 640 g for 10 min, the platelet rich pellet was resuspended in 4 ml HEPES assay buffer (137 mM NaCl, 2.7 mM KCl, 11.9 mM NaHCO3, 0.42 mM NaH2PO4, 1 mM MgCl2, 5.5 mM glucose, 0.1% bovine serum albumin, 10 mM HEPES adjusted to pH 7.4) and stored on ice.
Test compounds were prepared from 10 mM stocks in DMSO and serially diluted in assay buffer containing 0.4% DMSO and 25 μl transferred into a 96 well plate. Platelets were loaded with the mitochondrial membrane potential dye DiOC6 (3) (3,3′-dihexyloxacarbocyanine Iodide; Invitrogen) at 200 nM for 30 min, then 50 μl plated into each well of the 96 well plate containing diluted test compound and incubated for 15 min. Control wells included DMSO (0.1% final concentration) only or 5 μM cyclosporin A. Platelets were then stimulation with the addition of assay buffer (25 μl) containing CaCl2, alpha thrombin and Convulxin to achieve a final concentrations of 2 mM, 0.017 U/ml and 0.167 μg/ml respectively and incubated for 14 min. The reaction was stopped by the addition of 25 μl 15 mM EDTA in assay buffer. The mitochondrial membrane potential across the population of platelets in each well was then quantified by flow cytometry using a Guava easyCyte 5 Benchtop Flow Cytometer with 3000 events per well. The percentage of platelets with a depolarised mitochondrial membrane potential was calculated for each well. A pIC50 for each compound was then calculated using a standard four parameter curve fit model (GraphPad Prism).

Structure (SMILES)	mPTP Human platelets pIC50
C[C@H]1Cc2ccccc2[C@@H]1NC(=O)/C=C/c1ccc2cn[nH]c2c1 (single isomer, unassigned) [Example 14c]	6.8
O=C(/C=C/c1ccc2cn[nH]c2c1)N[C@@H]1CCc2ccccc21 [Example 3, (R,E)-N-(2,3-dihydro-1H-inden-1-yl)-3-(1H-indazol-6-yl)acrylamide]	7.3
